Data taken from US9480259B2, “Pyrazolopyrans having herbicidal and pharmaceutical properties” (BASF SE, priority 2012, dated 2016).

Assays:
[1] = target: Arabidopsis thaliana SHMT; assay: SHMT activity assay (ED50 SHMT), coupled with N5,N10-CH2-THF dehydrogenase, NADH at 340 nm; type: biochemical; details: values given as upper bounds
Method in brief: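 His-tagged SHMT purified on Ni-NTA. NADH formation followed at 340 nm for 30 min; ED50 from inhibition of initial velocity.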

[2] = system: CHEAL (Chenopodium album); assay: Greenhouse herbicidal test, post-emergence, CHEAL; type: in vivo; details: application rate 1 kg/ha; for pest or weed control at 1000 g/ha: Chenopodium album, scale 0 to 100, read-out: herbicidal activity against CHEAL; for herbicidal activity against CHEAL: scale 0 to 100
Description: (§1) The seeds of the test plants were sown separately for each species. For the post-emergence treatment, the test plants were first grown to a height of 2 to 5 cm, depending on the plant habit, and only then treated with the active ingredients which had been suspended or emulsified in water. For this purpose, the test plants were either sown directly and grown in the same containers, or they were first grown separately as seedlings and transplanted into the test containers a few days prior to treatment. Depending on the species, the plants were kept at 10-25° C. or 20-35° C. The test period extended over 8 to 9 days. During this time, the plants were tended, and their response to the individual treatments was evaluated. Evaluation was carried out using a scale from 0 to 100. 100 means no emergence of the plants, or complete destruction of at least the aerial moieties, and 0 means no damage, or normal course of growth. A good herbicidal activity is given at values of at least 70 and a very good herbicidal activity is given at values of at least 85. The plants used in the greenhouse experiments belonged to the following species: [table]

[3] = system: POLCO (Poligonum convolvulus); assay: Greenhouse herbicidal test, post-emergence, POLCO; type: in vivo; details: application rate 1 kg/ha; for pest or weed control at 1000 g/ha: Poligonum convolvulus, scale 0 to 100, read-out: herbicidal activity against POLCO; for herbicidal activity against POLCO: scale 0 to 100
Description: as §1

[4] = system: SETFA, AMARE, POLCO, CHEAL, GALAP; assay: Greenhouse herbicidal test, post-emergence, weed panel; type: in vivo; details: application rate 1 kg/ha, scale 0 to 100
Description: as §1

[5] = system: AMARE (Amaranthus retroflexus); assay: Greenhouse herbicidal test, post-emergence, AMARE; type: in vivo; details: application rate 1 kg/ha; for pest or weed control at 1000 g/ha: Amaranthus retroflexus, scale 0 to 100, read-out: herbicidal activity against AMARE; for herbicidal activity against AMARE: scale 0 to 100
Description: as §1

GALAP (Galium aparine) = assay: Greenhouse herbicidal test, post-emergence, GALAP; type: in vivo; details: application rate 1 kg/ha, scale 0 to 100
Description: as §1

SETFA (Setaria faberi) = assay: Greenhouse herbicidal test, post-emergence, SETFA; type: in vivo; details: application rate 1 kg/ha, scale 0 to 100, read-out: herbicidal activity against SETFA
Description: as §1

[6] = Arabidopsis thaliana SHMT enzyme assay
[7] = Table 2, Arabidopsis thaliana SHMT enzyme assay

SMILES | EC50 ([1]; Table 2) [nM] | pest or weed control at 1000 g/ha [2] [%] | pest or weed control at 1000 g/ha [3] [%] | herbicidal activity against at least three of the weeds SETFA, AMARE, POLCO, CHEAL, GALAP [4] | pest or weed control at 1000 g/ha [5] [%] | herbicidal activity against GALAP (GALAP (Galium aparine)) | pest or weed control at 1000 g/ha (SETFA (Setaria faberi)) [%] | EC50 [1, 6] [nM] | EC50 [1, 7] [nM] | herbicidal activity against CHEAL [2] | herbicidal activity against POLCO [3] | herbicidal activity against AMARE [5]
CCC(=O)N(C)c1cc(C#N)cc(C2(C3CCC3)C(C#N)=C(N)Oc3[nH]nc(C)c32)c1 (stereo not shown) [Compound 2.611] | < 10 | ≥ 85 | ≥ 85 | good or very good | ≥ 85 |  |  |  |  |  |  | 
COc1c(C#N)cc(C2(C3CCC3)C(C#N)=C(N)Oc3[nH]nc(C)c32)cc1C#N (stereo not shown) [Compound 2.486] | < 10 | ≥ 70 |  | good or very good | ≥ 85 | very good (a very good herbicidal activity is given at values of at least 85) |  |  |  |  |  | 
Cc1n[nH]c2c1C(c1cc(OCC#N)cc(C(F)(F)F)c1)(C1CCC1)C(C#N)=C(N)O2 (stereo not shown) [Compound 2.470] | < 100 | ≥ 85 |  | good or very good | ≥ 85 |  | ≥ 85 |  |  |  |  | 
CC(=O)NCC(=O)N(C)c1cc(C#N)cc(C2(C3CCC3)C(C#N)=C(N)Oc3[nH]nc(C)c32)c1 (stereo not shown) [Compound 2.709] |  | ≥ 85 |  | good or very good | ≥ 85 |  | ≥ 70 | < 100 |  |  |  | 
Cc1n[nH]c2c1C(c1cc(C#N)cc(C#N)c1)(C(C)C)C(C#N)=C(N)O2 (stereo not shown) [Compound 2.335] |  | ≥ 85 | ≥ 85 | good or very good | ≥ 85 |  |  |  | < 10 |  |  | 
Cc1n[nH]c2c1C(c1cc(C#N)cc(N(C)C(=O)CCCC#N)c1)(C(C)C)C(C#N)=C(N)O2 (stereo not shown) [Compound 2.664] |  | ≥ 85 |  | good or very good | ≥ 85 |  | ≥ 85 | < 10 |  |  |  | 
Cc1n[nH]c2c1C(c1cc(C(N)=S)cc(C(F)(F)F)c1)(C1CCC1)C(C#N)=C(N)O2 (racemic) [Compound 2.409] |  |  |  | good or very good |  |  |  |  |  | very good (a very good herbicidal activity is given at values of at least 85) | very good (a very good herbicidal activity is given at values of at least 85) | good (A good herbicidal activity is given at values of at least 70)
Cc1n[nH]c2c1C(c1cc(C#N)cc(C#N)c1)(C1(F)CCC1)C(C#N)=C(N)O2 (stereo not shown) [Compound 2.569] | < 100 | ≥ 85 | ≥ 85 | good or very good | ≥ 85 |  |  |  |  |  |  | 
Cc1n[nH]c2c1C(c1cc(C#N)cc(N(C)C(=O)CC#N)c1)(C(C)C)C(C#N)=C(N)O2 (stereo not shown) [Compound 2.662] |  | ≥ 85 |  | good or very good | ≥ 85 |  | ≥ 85 | < 10 |  |  |  | 
Cc1n[nH]c2c1C(c1cc(Br)cc(N(C)C(=O)CC#N)c1)(C1CCC1)C(C#N)=C(N)O2 (stereo not shown) [Compound 2.729] |  | ≥ 85 |  | good or very good | ≥ 85 |  | ≥ 70 | < 10 |  |  |  | 
COCC(=O)N(C)c1cc(C#N)cc(C2(C3CCC3)C(C#N)=C(N)Oc3[nH]nc(C)c32)c1 (stereo not shown) [Compound 2.615] | < 10 | ≥ 85 | ≥ 85 | good or very good | ≥ 85 |  |  |  |  |  |  | 
COCC(=O)N(C)c1cc(C#N)cc(C2(C(C)C)C(C#N)=C(N)Oc3[nH]nc(C)c32)c1 (stereo not shown) [Compound 2.688] |  | ≥ 85 |  | good or very good | ≥ 85 |  | ≥ 85 | < 10 |  |  |  | 
Cc1n[nH]c2c1C(c1cc(Cl)cc(C#N)c1)(C1CCC1)C(C#N)=C(N)O2 (stereo not shown) [Compound 2.280] |  | ≥ 85 | ≥ 85 | good or very good | ≥ 85 |  |  |  | < 10 |  |  | 
Cc1n[nH]c2c1C(c1cc(C#N)cc(N(C)C(=O)CCC#N)c1)(C(C)C)C(C#N)=C(N)O2 (stereo not shown) [Compound 2.663] |  | ≥ 70 |  | good or very good | ≥ 85 |  | ≥ 85 | < 10 |  |  |  | 
Cc1n[nH]c2c1C(c1cc(C#N)cc(C(F)(F)F)c1)(C1CC1)C(C#N)=C(N)O2 (stereo not shown) [Compound 2.362] |  | ≥ 85 | ≥ 85 | good or very good | ≥ 85 |  |  |  | < 10 |  |  | 
Cc1n[nH]c2c1C(c1cc(C#N)cc(C#N)c1)(C1CCC1)C(C#N)=C(N)O2 (stereo not shown) [Compound 2.283] |  | ≥ 85 | ≥ 85 | good or very good | ≥ 85 |  |  |  | < 100 |  |  | 
Cc1n[nH]c2c1C(c1cc(C(F)(F)F)cc(C(F)(F)F)c1)(C1(F)CC1)C(C#N)=C(N)O2 (stereo not shown) [Compound 2.247] |  | ≥ 85 | ≥ 85 | good or very good | ≥ 85 |  |  |  | < 10 |  |  | 
Cc1n[nH]c2c1C(c1cc(Br)cc(C#N)c1)(C1CCC1)C(C#N)=C(N)O2 (stereo not shown) [Compound 2.281] |  | ≥ 85 | ≥ 85 | good or very good | ≥ 85 |  |  |  | < 10 |  |  | 
Cc1n[nH]c2c1C(c1cc(-c3nnnn3C)cc(C(F)(F)F)c1)(C1CCC1)C(C#N)=C(N)O2 (racemic) [Compound 2.399] |  |  |  | good or very good |  |  |  |  |  | very good (a very good herbicidal activity is given at values of at least 85) | good (A good herbicidal activity is given at values of at least 70) | very good (a very good herbicidal activity is given at values of at least 85)
Cc1n[nH]c2c1C(c1cc(C#N)cc(C(F)(F)F)c1)(C1CCC1)C(C#N)=C(N)O2 (stereo not shown) [Compound 2.282] |  | ≥ 85 | ≥ 85 | good or very good | ≥ 85 |  |  |  | < 10 |  |  | 
Cc1n[nH]c2c1C(c1cc(C#N)cc(CCCC#N)c1)(C(C)C)C(C#N)=C(N)O2 (stereo not shown) [Compound 2.675] |  | ≥ 85 |  | good or very good | ≥ 85 |  | ≥ 70 | < 10 |  |  |  | 
